Measurements as given in paper PMC8899577, “Targeting the anti-apoptotic Bcl-2 family proteins: machine learning virtual screening and biological evaluation of new small molecules” (Theranostics, 2022).

Legend:
[1] = system: MDA-MB-231 breast carcinoma cells; test: Cell viability by MTT, MDA-MB-231; type: cell-based, Human; conditions: 20 µM for 72 h, vs control
Experimental: (§1) The effect of compounds on cell viability was performed by measuring 3-[4,5-dimethylthiazol-2-yl]-2,5-diphenyltetrazolium bromide inner salt (MTT, Sigma-Aldrich) dye absorbance (solid tumor cells) or by quantization of ATP present in metabolically active cells using CellTiter-Glo® Luminescent (Promega, Fitchburg, Wisconsin, USA) (hematologic cells) following manifacturer's protocol. To evaluate the cell colony-forming ability, cell suspension from different samples was seeded into 60-mm Petri dishes. After 10 days, colonies were stained with 2% methylene blue in 95% ethanol and counted (1 colony > 50 cells). The surviving fractions were calculated as the ratio of absolute survival of the treated sample/survival of DMSO-treated control sample.
(§2) Figure 4 Analysis of the effect of IS20 and IS21 on cell viability, clonogenic ability and tumor sphere formation in cancer cells. […] (B) Representative images and quantification of clonogenic ability evaluated in M14 and H1299 cells treated with IS20 or IS21 (20 μM for 72 h). […] (C) Quantification of tumor sphere formation of M14 and H1299 cells treated with IS20 or IS21 (20 μM for 72 h). […] (A-C) Data are reported as mean ± SD of three independent experiments. p-values were calculated between control (Ctrl) and treated cells, ** p < 0.001 and *** p < 0.0001.

H1299 cells = test: Western blot of PARP1 cleavage, H1299; type: cell-based, Human; conditions: 72 h
Experimental: Western blot analyses of total protein extracts were performed as previously described. Immunodetection was performed using antibodies directed to poly (ADP-ribose) polymerase (PARP; BD Biosciences San Diego, CA, USA), LC3B (Cell Signaling Technology, Danvers, MA), HSP72/73 (Calbiochem, EMD Biosciences, La Jolla, CA), Bcl-2 (SC-509, Santa Cruz Biotechnology Inc, Dallas, TX, USA), Bcl-xL (SC-271121, Santa Cruz Biotechnology Inc), Mcl-1 (SC-12756, Santa Cruz Biotechnology Inc) α-tubulin (Santa Cruz Biotechnology Inc) actin (Sigma-Aldrich, St. Louis, Missouri, USA). Anti-rabbit or anti-mouse immunoglobulin G-horseradish peroxidase-conjugated antibodies (Amersham Biosciences, Freiburg, Germany) were used as secondary antibody. Images were acquired by Image Lab Software (Bio-Rad, Hercules, CA, USA), using a ChemiDoc System instrument (Bio-Rad). […]
Figure 5 Analysis of apoptosis induction by IS20 and IS21 in leukemia, melanoma and NSCLC cells. […] (G) Flow cytometric quantification of cells in the subG1 peak of cell cycle distribution by propidium iodide staining in HL60 cell line treated with IS20 or IS21 (20 μM for 24 h) and in M14, H1299 and MDA-MB-231 cell lines treated with IS20 or IS21 (20 μM for 72 h). Data are reported as mean ± SD of three independent experiments. p-values were calculated between control (Ctrl) and treated cells, * p < 0.05. […]

Bcl-2 = Bcl-2 (Homo sapiens, UniProt P10415); test: SPR binding to immobilized Bcl-2; conditions: for Kd: SPR, 25 °C, 2-site fit, highest affinity site
Experimental: FastStep experiments were performed with a SensiQ Pioneer apparatus. Bcl-2 immobilization on COOH5 sensorchips was carried out essentially as previously reported, [40]. All the experiments were carried out at 25 °C in degassed HEPES 20 mM, pH 7.4, NaCl 150 mM, 0.005% surfactant P20 + 2% DMSO (HBSP2%D). […] Each sensorgram is the average of at least three experiments. The decrease in Response Units (RU) after 165 s indicates analyte dissociation from the immobilized Bcl-2 upon HSBP2%D buffer injection. Control SPR experiments were carried out measuring sensorgrams on Bcl-xL and Mcl-1 (ligands) immobilized on COOH5 sensorchips as previously reported at 25 °C in degassed HBSP2%D buffer. […] Each sensorgram is the average of at least three experiments. The decrease in RU after 180 s indicates analyte dissociation from the immobilized ligands upon HSBP2%D buffer injection. Kinetic evaluation of the sensorgrams was carried out using the Qdat 4.0 program; best fittings were obtained with 2 sites and indicated in red (reported KD values refer to dissociation constants of the highest affinity site).
Figure 2 SPR analysis of the interaction between putative inhibitors of Bcl-2 anti-apoptotic members and Bcl-2 protein. Bcl-2 was immobilized via amine coupling onto a COOH5 sensorchip; Bcl-2 family inhibitors (analytes) were injected at a flow rate = 100 μL/min, at the following concentrations. 0-30 s: 0.625 μM; 31-60 s: 1.25 μM; 61-90 s: 2.5 μM; 91-120 s: 5 μM; 121-150 s: 10 μM; 151-165 s: 20 μM. The increase in Response Units (RU) relative to baseline indicates complex formation between the immobilized Bcl-2 ligand and the analytes upon Bcl-2 family inhibitors injection. The decrease in RU after 165 s indicates analyte dissociation from the immobilized Bcl-2 upon buffer injection. Full fittings with 2 sites are indicated in red. The fitted KD values are the following.

U937 cells = test: Western blot of LC3B-I/LC3B-II (autophagy), U937; type: cell-based, Human; conditions: 20 µM for 24 h
M14 cells [2] = test: Clonogenic assay, M14; type: cell-based, Human; conditions: 20 µM for 72 h, respect to controls
Experimental: as §1, §2

M14 cells [3] = test: Flow cytometry subG1 peak (PI staining), M14; type: cell-based, Human; conditions: 20 µM for 72 h
Experimental: Flow cytometric analysis (BD Accuri™ C6, BD Biosciences) was performed to evaluate cell cycle distribution by propidium iodide (PI) staining, and cell viability by using the PI dye exclusion assay as previously reported.
Figure 5 Analysis of apoptosis induction by IS20 and IS21 in leukemia, melanoma and NSCLC cells. […] (A-F) Reported images are representative of two independent experiments with similar results. HSP72/73 or α-Tubulin are shown as loading and transferring control. (G) Flow cytometric quantification of cells in the subG1 peak of cell cycle distribution by propidium iodide staining in HL60 cell line treated with IS20 or IS21 (20 μM for 24 h) and in M14, H1299 and MDA-MB-231 cell lines treated with IS20 or IS21 (20 μM for 72 h). Data are reported as mean ± SD of three independent experiments. p-values were calculated between control (Ctrl) and treated cells, * p < 0.05. (H) Flow cytometric quantification of cells in the subG1 peak by propidium iodide staining in M14 and H1299 cell lines treated with IS20 or IS21 (20 μM, 72 h) in presence or absence of the pan caspase inhibitor z-VAD (50 μM). p-values were calculated between treated control (Ctrl) cells, # p < 0.01, ## p < 0.001 or between cells treated with IS20 or IS21 alone or in combination with z-VAD, * p < 0.05, ** p < 0.005. (G-H) Data are reported as mean of two (H) or three (G) experiments ± SD.

Sequence of Bcl-2 (P10415 whole entry): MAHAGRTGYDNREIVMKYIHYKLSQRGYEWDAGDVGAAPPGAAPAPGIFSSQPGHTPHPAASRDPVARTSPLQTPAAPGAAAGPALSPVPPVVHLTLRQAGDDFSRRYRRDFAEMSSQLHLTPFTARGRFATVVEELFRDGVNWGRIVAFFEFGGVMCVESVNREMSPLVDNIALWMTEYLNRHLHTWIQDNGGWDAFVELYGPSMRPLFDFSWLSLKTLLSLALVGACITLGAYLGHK

Row | SMILES | cell viability MDA-MB-231 [1] | PARP1 cleavage, H1299 (H1299 cells) | Kd (Bcl-2) | selectivity for Bcl-2 than for Mcl-1 (Bcl-2; selectivity index from KD) | ratio of LC3B-II on LC3B-I, U937 (U937 cells) | decrease of cell colony formation, M14 (M14 cells [2]) | subG1 peak of cell cycle distribution, M14 (M14 cells [3]) | selectivity for Bcl-2 than for Bcl-xL (Bcl-2; selectivity index from KD)
1 | CCCCOc1ccc(C2/C(=C(\O)c3ccc4c(c3)CC(C)O4)C(=O)C(=O)N2c2nnc(SCc3ccc(Cl)cc3)s2)cc1OCC (stereo not drawn) [IS20] | not significantly perturbed | cleavage of PARP1 | 320 ± 90 nM | 12 times | Increased ratio | 80-90% | presence of subG1 peak | –
2 | CCCCCOc1ccc(C2/C(=C(\O)c3ccc4c(c3)CC(C)O4)C(=O)C(=O)N2c2nnc(SCc3ccc(Cl)cc3)s2)cc1OCC (stereo not drawn) [IS21] | not significantly perturbed | cleavage of PARP1 | 190 ± 70 nM | ~6 times | Increased ratio | 80-90% | presence of subG1 peak | about 2.7 times
